Assay results: patent publication US8227612B2, “Quinoline compound and pharmaceutical composition, preparation method and uses thereof” (Shanghai Institute of Pharmaceutical Industry, priority 2008, dated 2012)

Test system: hyperlipidemia quail
Experiment: Lipid-lowering in vivo experiments in hyperlipidemia quail
Details: for CHO / H/L / HDL-C / LDL-C / TG: oral, blood after four weeks hypercholesterol diet
Procedure: Lipid-lowering in vivo experiments are made in hyperlipidemia quail with the compounds [NT] according to the present invention. Atorvastatin (20 mg/kg) were used as the positive control. Two groups of dosage (Low: 5 mg/kg, High: 20 mg/kg) of the ten compounds of [NT] were tested. After one week feeding with normal diet, except for the normal control group, the model control group and the tested groups of quails were fed with hypercholesterol diet for four weeks, and then the blood was collected respectively for testing the content of […] including triglyceride, cholesterol, low density lipoprotein and high density lipoprotein.

[1] = oral administration, hyperlipidemia quail

CC(C)c1c(C(=O)Nc2ccccc2)c(-c2ccccc2)c(-c2ccc(F)cc2)n1CC[C@@H](O)C[C@@H](O)CC(=O)O [Atorvastatin, reference compound]
CHO (High: 20 mg/kg): 6.51 mmol/L
H/L (High: 20 mg/kg): 2.19
HDL-C (High: 20 mg/kg): 4.39 mmol/L
LDL-C (High: 20 mg/kg): 2.51 mmol/L
TG (High: 20 mg/kg): 0.76 mmol/L

CC(C)Sc1ccc(-c2cc3c(-c4ccc(SC(C)C)cc4)c(/C=C/[C@@H](O)C[C@@H](O)CC(=O)O)cnc3c(-c3ccc(SC(C)C)cc3)c2-c2ccc(SC(C)C)cc2)cc1 [Compound A1, (3R,5S)-7-[4,6,7,8-tetra-(4-isopropylthiophenyl)quinoline-3-yl]-3,5-dihydroxy-6(E)-heptenoic acid]
CHO (High: 20 mg/kg): 8.05 mmol/L
H/L (High: 20 mg/kg): 1.54
HDL-C (High: 20 mg/kg): 5.31 mmol/L
LDL-C (High: 20 mg/kg): 3.63 mmol/L
TG (High: 20 mg/kg): 0.51 mmol/L
CHO (Low: 5 mg/kg): 8.72 mmol/L
H/L (Low: 5 mg/kg): 1.91
HDL-C (Low: 5 mg/kg): 5.84 mmol/L
LDL-C (Low: 5 mg/kg): 3.99 mmol/L
TG (Low: 5 mg/kg): 0.59 mmol/L
lipid-lowering effect (in words) [1]: obvious lipid-lowering effect

COc1cccc(Sc2cc3ncc(/C=C/[C@@H](O)C[C@@H](O)CC(=O)[O-])c(Sc4cccc(OC)c4)c3cc2F)c1.COc1cccc(Sc2cc3ncc(/C=C/[C@@H](O)C[C@@H](O)CC(=O)[O-])c(Sc4cccc(OC)c4)c3cc2F)c1.[Ca+2] [Compound A5]
CHO (High: 20 mg/kg): 10.55 mmol/L
H/L (High: 20 mg/kg): 1.06
HDL-C (High: 20 mg/kg): 5.35 mmol/L
LDL-C (High: 20 mg/kg): 6.40 mmol/L
TG (High: 20 mg/kg): 0.58 mmol/L
CHO (Low: 5 mg/kg): 9.66 mmol/L
H/L (Low: 5 mg/kg): 1.29
HDL-C (Low: 5 mg/kg): 5.35 mmol/L
LDL-C (Low: 5 mg/kg): 5.07 mmol/L
TG (Low: 5 mg/kg): 1.95 mmol/L
lipid-lowering effect (in words) [1]: obvious lipid-lowering effect

CC(C)Sc1ccc(-c2c(/C=C/[C@@H](O)C[C@@H](O)CC(=O)[O-])cnc3c(F)c(F)c(F)cc23)cc1.CC(C)Sc1ccc(-c2c(/C=C/[C@@H](O)C[C@@H](O)CC(=O)[O-])cnc3c(F)c(F)c(F)cc23)cc1.[Ca+2] [Compound A6, (3R,5S)-7-[6,7,8-trifluoro-4-(4-isopropylthiophenyl)quinoline-3-yl]-3,5-dihydroxy-6(E)-heptenoic acid hemi calcium salt]
CHO (High: 20 mg/kg): 8.66 mmol/L
H/L (High: 20 mg/kg): 1.37
HDL-C (High: 20 mg/kg): 4.74 mmol/L
LDL-C (High: 20 mg/kg): 3.66 mmol/L
TG (High: 20 mg/kg): 4.47 mmol/L
CHO (Low: 5 mg/kg): 8.65 mmol/L
H/L (Low: 5 mg/kg): 1.21
HDL-C (Low: 5 mg/kg): 4.89 mmol/L
LDL-C (Low: 5 mg/kg): 4.61 mmol/L
TG (Low: 5 mg/kg): 0.70 mmol/L
lipid-lowering effect (in words) [1]: obvious lipid-lowering effect

O=C([O-])C[C@H](O)C[C@H](O)/C=C/c1cnc2c(F)c(F)c(F)cc2c1Sc1ccc(F)cc1.O=C([O-])C[C@H](O)C[C@H](O)/C=C/c1cnc2c(F)c(F)c(F)cc2c1Sc1ccc(F)cc1.[Ca+2] [Compound A8]
CHO (High: 20 mg/kg): 5.57 mmol/L
H/L (High: 20 mg/kg): 2.21
HDL-C (High: 20 mg/kg): 3.73 mmol/L
LDL-C (High: 20 mg/kg): 1.94 mmol/L
TG (High: 20 mg/kg): 0.45 mmol/L
CHO (Low: 5 mg/kg): 9.11 mmol/L
H/L (Low: 5 mg/kg): 1.58
HDL-C (Low: 5 mg/kg): 4.75 mmol/L
LDL-C (Low: 5 mg/kg): 3.46 mmol/L
TG (Low: 5 mg/kg): 1.50 mmol/L
lipid-lowering effect (in words) [1]: obvious lipid-lowering effect

O=C([O-])C[C@H](O)C[C@H](O)/C=C/c1cnc2c(Oc3ccccc3)c(Oc3ccccc3)c(Oc3ccccc3)cc2c1Oc1ccccc1.O=C([O-])C[C@H](O)C[C@H](O)/C=C/c1cnc2c(Oc3ccccc3)c(Oc3ccccc3)c(Oc3ccccc3)cc2c1Oc1ccccc1.[Ca+2] [Compound A9, (3R,5S)-7-[4,6,7,8-tetra-phenoxyquinoline-3-yl]-3,5-dihydroxy-6(E)-heptenoic acid hemi calcium salt]
CHO (High: 20 mg/kg): 9.18 mmol/L
H/L (High: 20 mg/kg): 1.54
HDL-C (High: 20 mg/kg): 4.98 mmol/L
LDL-C (High: 20 mg/kg): 4.08 mmol/L
TG (High: 20 mg/kg): 1.26 mmol/L
CHO (Low: 5 mg/kg): 9.75 mmol/L
H/L (Low: 5 mg/kg): 1.56
HDL-C (Low: 5 mg/kg): 4.98 mmol/L
LDL-C (Low: 5 mg/kg): 5.16 mmol/L
TG (Low: 5 mg/kg): 1.24 mmol/L
lipid-lowering effect (in words) [1]: obvious lipid-lowering effect

COc1cccc(Sc2c(/C=C/[C@@H](O)C[C@@H](O)CC(=O)[O-])cnc3cc(Cl)c(F)cc23)c1.COc1cccc(Sc2c(/C=C/[C@@H](O)C[C@@H](O)CC(=O)[O-])cnc3cc(Cl)c(F)cc23)c1.[Ca+2] [Compound A11]
CHO (High: 20 mg/kg): 8.53 mmol/L
H/L (High: 20 mg/kg): 1.33
HDL-C (High: 20 mg/kg): 5.06 mmol/L
LDL-C (High: 20 mg/kg): 4.30 mmol/L
TG (High: 20 mg/kg): 0.42 mmol/L
CHO (Low: 5 mg/kg): 11.63 mmol/L
H/L (Low: 5 mg/kg): 1.24
HDL-C (Low: 5 mg/kg): 6.32 mmol/L
LDL-C (Low: 5 mg/kg): 6.51 mmol/L
TG (Low: 5 mg/kg): 0.56 mmol/L
lipid-lowering effect (in words) [1]: obvious lipid-lowering effect

O=C([O-])C[C@H](O)C[C@H](O)/C=C/c1cnc2c(F)c(Oc3ccccc3)c(F)cc2c1Oc1ccccc1.O=C([O-])C[C@H](O)C[C@H](O)/C=C/c1cnc2c(F)c(Oc3ccccc3)c(F)cc2c1Oc1ccccc1.[Ca+2] [Compound A12, (3R,5S)-7-[6,8-difluoro-4,7-di-(phenoxy)quinoline-3-yl]-3,5-dihydroxy-6(E)-heptenoic acid hemi calcium salt]
CHO (High: 20 mg/kg): 6.25 mmol/L
H/L (High: 20 mg/kg): 2.11
HDL-C (High: 20 mg/kg): 3.77 mmol/L
LDL-C (High: 20 mg/kg): 2.52 mmol/L
TG (High: 20 mg/kg): 0.97 mmol/L
CHO (Low: 5 mg/kg): 12.40 mmol/L
H/L (Low: 5 mg/kg): 1.43
HDL-C (Low: 5 mg/kg): 6.21 mmol/L
LDL-C (Low: 5 mg/kg): 6.75 mmol/L
TG (Low: 5 mg/kg): 0.54 mmol/L
lipid-lowering effect (in words) [1]: obvious lipid-lowering effect

CC(C)c1ccc(Sc2cc3ncc(/C=C/[C@@H](O)C[C@@H](O)CC(=O)[O-])c(Sc4ccc(C(C)C)cc4)c3cc2F)cc1.CC(C)c1ccc(Sc2cc3ncc(/C=C/[C@@H](O)C[C@@H](O)CC(=O)[O-])c(Sc4ccc(C(C)C)cc4)c3cc2F)cc1.[Ca+2] [Compound A13]
CHO (High: 20 mg/kg): 8.88 mmol/L
H/L (High: 20 mg/kg): 1.79
HDL-C (High: 20 mg/kg): 5.64 mmol/L
LDL-C (High: 20 mg/kg): 3.95 mmol/L
TG (High: 20 mg/kg): 0.35 mmol/L
CHO (Low: 5 mg/kg): 14.13 mmol/L
H/L (Low: 5 mg/kg): 0.92
HDL-C (Low: 5 mg/kg): 6.93 mmol/L
LDL-C (Low: 5 mg/kg): 9.23 mmol/L
TG (Low: 5 mg/kg): 0.56 mmol/L
lipid-lowering effect (in words) [1]: obvious lipid-lowering effect
way of reducing lipidemia (in words) [1]: reduces lipidemia by lowering TG and increasing H/L ratio

O=C([O-])C[C@H](O)C[C@H](O)/C=C/c1cnc2cc(Cl)c(F)cc2c1Oc1ccc(F)cc1.O=C([O-])C[C@H](O)C[C@H](O)/C=C/c1cnc2cc(Cl)c(F)cc2c1Oc1ccc(F)cc1.[Ca+2] [Compound A14, (3R,5S)-7-[6-fluoro-7-chloro-4-(4-fluorophenoxy)quinoline-3-yl]-3,5-dihydroxy-6(E)-heptenoic acid hemi calcium salt]
CHO (High: 20 mg/kg): 7.61 mmol/L
H/L (High: 20 mg/kg): 1.44
HDL-C (High: 20 mg/kg): 4.66 mmol/L
LDL-C (High: 20 mg/kg): 3.62 mmol/L
TG (High: 20 mg/kg): 0.96 mmol/L
CHO (Low: 5 mg/kg): 11.64 mmol/L
H/L (Low: 5 mg/kg): 1.15
HDL-C (Low: 5 mg/kg): 6.63 mmol/L
LDL-C (Low: 5 mg/kg): 6.40 mmol/L
TG (Low: 5 mg/kg): 0.74 mmol/L
lipid-lowering effect (in words) [1]: obvious lipid-lowering effect
